Molecular target: SARS2 protease (Severe acute respiratory syndrome coronavirus 2, UniProt P0DTD1)
Test: SARS-CoV-2 protease inhibition assay (SARS2 FRET protease assay)
Format: biochemical
Settings: SARS-CoV-2 protease 25 nM, FRET, peptide substrate 1.3 μM, 30 minutes at 30° C., compounds 20 μM to 1.0 nM; read-out: IC50

SMILES | IC50 [nM]
O=C(O)C(=O)C(CC1CC2(CCCCC2)NC1=O)NC(=O)[C@H](CC1CCCCC1)NC(=O)c1cc2ccccc2[nH]1 (stereo partly drawn) [Compound C228, 3-((S)-3-Cyclohexyl-2-(1H-indole-2-carboxamido)propanamido)-2-oxo-4-(2-oxo-1-azaspiro[4.5]decan-3-yl)butanoic acid] | 120
O=CC(CC1CC2(CCC2)NC1=O)NC(=O)[C@H](CC1CCCCC1)NC(=O)OCc1cccc(Cl)c1 (stereo partly drawn) [Compound C229, 3-Chlorobenzyl ((2S)-3-cyclohexyl-1-oxo-1-((1-oxo-3-(6-oxo-5-azaspiro[3.4]octan-7-yl)propan-2-yl)amino)propan-2-yl)carbamate] | 0.8
CC(C)C[C@H](NC(=O)OC(Cc1ccccc1)C(C)C)C(=O)N[C@H](C=O)C[C@@H]1CCNC1=O (stereo partly drawn) [Compound C230, 3-Methyl-1-phenylbutan-2-yl ((S)-4-methyl-1-oxo-1-(((S)-1-oxo-3-((S)-2-oxopyrrolidin-3-yl)propan-2-yl)amino)pentan-2-yl)carbamate] | 70
CC(C)(C)C(OC(=O)N[C@@H](CC1CCCCC1)C(=O)N[C@@H](C[C@@H]1CCNC1=O)C(=O)C(N)=O)c1ccccc1 (stereo partly drawn) [Compound C231, 2,2-Dimethyl-1-phenylpropyl ((S)-1-(((S)-4-amino-3,4-dioxo-1-((S)-2-oxopyrrolidin-3-yl)butan-2-yl)amino)-3-cyclohexyl-1-oxopropan-2-yl) carbamate] | 1800
CCOC(=O)/C=C/[C@H](C[C@@H]1CCNC1=O)NC(=O)[C@H](CC(C)C)NC(=O)OC(Cc1ccccc1)c1ccccc1 (stereo partly drawn) [Compound C232, Ethyl (4S, E)-4-((2S)-2-(((1,2-diphenylethoxy)carbonyl)amino)-4-methylpentanamido)-5-((S)-2-oxopyrrolidin-3-yl) pent-2-enoate] | 15100
COc1cccc2[nH]c(C(=O)N[C@@H](CC(C)C)C(=O)NC(CC3CC4(CCCCC4)NC3=O)C(=O)CO)cc12 (stereo partly drawn) [Compound C233, N-((2S)-1-((4-hydroxy-3-oxo-1-(2-oxo-1-azaspiro[4.5]decan-3-yl)butan-2-yl)amino)-4-methyl-1-oxopentan-2-yl)-4-methoxy-1H-indole-2-carboxamide] | 20
COc1cccc2[nH]c(C(=O)N[C@@H](CC(C)C)C(=O)NC(CC3CC4(CCCCC4)NC3=O)C(=O)C(=O)NC3CC3)cc12 (stereo partly drawn) [Compound C234, N-((2S)-1-((4-(cyclopropylamino)-3,4-dioxo-1-(2-oxo-1-azaspiro[4.5]decan-3-yl)butan-2-yl)amino)-4-methyl-1-oxopentan-2-yl)-4-methoxy-1H-indole-2-carboxamide] | 0.8
CC(C)(c1cccc(Cl)c1)C(OC(=O)N[C@@H](CC1CCCCC1)C(=O)N[C@@H](C[C@@H]1CCNC1=O)C(=O)C(=O)O)c1ccc2ccccc2c1 (stereo partly drawn) [Compound C235, (3S)-3-((2S)-2-(((2-(3-Chlorophenyl)-2-methyl-1-(naphthalen-2-yl)propoxy)carbonyl)amino)-3-cyclohexylpropanamido)-2-oxo-4-((S)-2-oxopyrrolidin-3-yl)butanoic acid] | 71
CC(C)C[C@H](NC(=O)OC(c1ccccc1)C(C)(C)c1cccc(Cl)c1)C(=O)N[C@@H](C[C@@H]1CCNC1=O)C(=O)CO (stereo partly drawn) [Compound C236, 2-(3-Chlorophenyl)-2-methyl-1-phenylpropyl ((S)-1-(((S)-4-hydroxy-3-oxo-1-((S)-2-oxopyrrolidin-3-yl)butan-2-yl)amino)-4-methyl-1-oxopentan-2-yl)carbamate] | 271
CC(C)C[C@H](NC(=O)OC(Cc1ccccc1)C1CCCCC1)C(=O)N[C@H](C=O)C[C@@H]1CCNC1=O (stereo partly drawn) [Compound C237, 1-Cyclohexyl-2-phenylethyl ((S)-4-methyl-1-oxo-1-(((S)-1-oxo-3-((S)-2-oxopyrrolidin-3-yl)propan-2-yl)amino)pentan-2-yl)carbamate] | 3
CC(C)C[C@H](NC(=O)OC(c1ccc(F)cc1)C(C)(C)c1cccc(Cl)c1)C(=O)N[C@H](C=O)C[C@@H]1CCNC1=O (stereo partly drawn) [Compound C238, 2-(3-chlorophenyl)-1-(4-fluorophenyl)-2-methylpropyl ((S)-4-methyl-1-oxo-1-(((S)-1-oxo-3-((S)-2-oxopyrrolidin-3-yl)propan-2-yl)amino)pentan-2-yl)carbamate] | 0.1
CC(C)C[C@H](NC(=O)OC1CCCC1Cc1cccc(Cl)c1)C(=O)N[C@@H](C[C@@H]1CCNC1=O)C(=O)NS(=O)(=O)C1CC1 (stereo partly drawn) [Compound C239, 2-(3-Chlorobenzyl) cyclopentyl ((S)-1-(((S)-1-(cyclopropanesulfonamido)-1-oxo-3-((S)-2-oxopyrrolidin-3-yl)propan-2-yl)amino)-4-methyl-1-oxopentan-2-yl) carbamate] | > 20000
CC(C)C[C@H](NC(=O)OC1CCCC1Cc1ccccc1)C(=O)N[C@@H](C[C@@H]1CCNC1=O)C(=O)C(N)=O (stereo partly drawn) [Compound C240, 2-Benzylcyclopentyl ((S)-1-(((S)-4-amino-3,4-dioxo-1-((S)-2-oxopyrrolidin-3-yl)butan-2-yl)amino)-4-methyl-1-oxopentan-2-yl)carbamate] | 230
O=C(N[C@@H](CC1CCCCC1)C(=O)N[C@@H](C[C@@H]1CCNC1=O)C(=O)C(=O)NC1CC1)OC(Cc1cccc(Cl)c1)c1cccc(Cl)c1 (stereo partly drawn) [Compound C241, 1,2-Bis(3-chlorophenyl)ethyl ((S)-3-cyclohexyl-1-(((S)-4-(cyclopropylamino)-3,4-dioxo-1-((S)-2-oxopyrrolidin-3-yl)butan-2-yl)amino)-1-oxopropan-2-yl)carbamate] | 2350
CC(C)C[C@H](NC(=O)OC(Cc1cccc(Cl)c1)c1cccc(Cl)c1)C(=O)N[C@@H](C[C@@H]1CCNC1=O)C(=O)C(=O)NC1CC1 (stereo partly drawn) [Compound C242, 1,2-Bis(3-chlorophenyl)ethyl ((S)-1-(((S)-4-(cyclopropylamino)-3,4-dioxo-1-((S)-2-oxopyrrolidin-3-yl)butan-2-yl)amino)-4-methyl-1-oxopentan-2-yl)carbamate] | 74
CC(C)C[C@H](NC(=O)OC(Cc1cccc(Cl)c1)c1ccccc1)C(=O)N[C@@H](C[C@@H]1CCNC1=O)C(=O)C(=O)N1CCCCC1 (stereo partly drawn) [Compound C243, 2-(3-Chlorophenyl)-1-phenylethyl ((S)-1-(((S)-3,4-dioxo-1-((S)-2-oxopyrrolidin-3-yl)-4-(piperidin-1-yl)butan-2-yl)amino)-4-methyl-1-oxopentan-2-yl) carbamate] | > 20000
CC1(C)CC(CC(NC(=O)[C@H](CC2CCCCC2)NC(=O)OCc2cccc(Cl)c2)C(=O)C(=O)NC2CC2)C(=O)N1 (stereo partly drawn) [Compound C244, 3-Chlorobenzyl ((2S)-3-cyclohexyl-1-((4-(cyclopropylamino)-1-(5,5-dimethyl-2-oxopyrrolidin-3-yl)-3,4-dioxobutan-2-yl)amino)-1-oxopropan-2-yl) carbamate] | 1730

SMILES | IC50 [nM]
CC1(C)CC(CC(NC(=O)[C@H](CC2CCCCC2)NC(=O)OC(c2ccc(Cl)cc2)C(C)(C)c2cccc(Cl)c2)C(=O)C(=O)NC2CC2)C(=O)N1 (stereo partly shown) [Compound C245] | 1980
CC(C)C[C@H](NC(=O)OC(c1ccc(Cl)cc1)C(C)(C)c1cccc(Cl)c1)C(=O)N[C@H](C=O)C[C@@H]1CCNC1=O (stereo partly shown) [Compound C246] | 520
CC(C)C[C@H](NC(=O)OC(c1ccc(F)cc1)C(C)(C)c1cccc(Cl)c1)C(=O)N[C@@H](C[C@@H]1CCNC1=O)C(=O)C(=O)NC1CC1 (stereo partly shown) [Compound C247] | 80
CC(C)C[C@H](NC(=O)OC(c1ccccc1)C(C)(C)c1cccc(Cl)c1)C(=O)N[C@@H](C[C@@H]1CCNC1=O)C(=O)C(=O)N1CCN(C)CC1 (stereo partly shown) [Compound C248] | 6930
CC(C)C[C@H](NC(=O)OC(Cc1cccc(Cl)c1)c1ccccc1)C(=O)N[C@@H](C[C@@H]1CCNC1=O)C(=O)NS(=O)(=O)C1CC1 (stereo partly shown) [Compound C249] | > 20000
O=C[C@H](C[C@@H]1CCNC1=O)NC(=O)[C@H](CC1CCCCC1)NC(=O)OC(c1cccc(Cl)c1)C1(c2cccc(Cl)c2)CC1 (stereo partly drawn) [Compound C250, (3-Chlorophenyl)(1-(3-chlorophenyl)cyclopropyl)methyl ((S)-3-cyclohexyl-1-oxo-1-(((S)-1-oxo-3-((S)-2-oxopyrrolidin-3-yl)propan-2-yl)amino)propan-2-yl)carbamate] | 10
CC(C)C[C@H](NC(=O)OC(c1ccccc1)C(F)(F)c1cccc(Cl)c1)C(=O)N[C@@H](C[C@@H]1CCNC1=O)C(=O)C(N)=O (stereo partly shown) [Compound C251] | 0.008
CC(C)(c1cccc(Cl)c1)C(OC(=O)N[C@@H](Cc1ccccc1)C(=O)N[C@@H](C[C@@H]1CCNC1=O)C(=O)C(N)=O)c1ccccc1 (stereo partly shown) [Compound C254] | 4270
NC(=O)C(=O)[C@H](C[C@@H]1CCNC1=O)NC(=O)[C@H](Cc1ccccc1)NC(=O)OC(CCc1ccccc1)c1ccccc1 (stereo partly shown) [Compound C255] | 70
CC(C)C[C@H](NC(=O)OCCCc1ccccc1)C(=O)N[C@@H](C[C@@H]1CCNC1=O)C(=O)C(N)=O [Compound C256] | 320
CC(C)(c1cccc(Cl)c1)C(OC(=O)N[C@@H](Cc1ccccc1)C(=O)N[C@H](C=O)C[C@@H]1CCNC1=O)c1ccccc1 (stereo partly shown) [Compound C257] | > 20000
CC(C)C[C@H](NC(=O)OC(c1ccccc1)C(F)(F)c1cccc(Cl)c1)C(=O)N[C@@H](C[C@@H]1CCNC1=O)C(=O)C(=O)NC1CC1 (stereo partly shown) [Compound C258] | 90
CC(C)C[C@H](NC(=O)OC(CCc1ccccc1)c1ccccc1)C(=O)N[C@H](C=O)C[C@@H]1CCNC1=O (stereo partly shown) [Compound C259] | 50
CC(C)C[C@H](NC(=O)OC(c1ccccc1)C(C)(C)c1cccc(Cl)c1)C(=O)N[C@@H](C[C@@H]1CCNC1=O)C(=O)C(=O)NCCN(C)C (stereo partly shown) [Compound C260] | 1140
CC(C)C[C@H](NC(=O)OC(c1ccccc1)C(C)(C)c1cccc(Cl)c1)C(=O)N[C@@H](C[C@@H]1CCNC1=O)C(=O)C(=O)N1CCN(C(=O)OC(C)(C)C)CC1 (stereo partly shown) [Compound C261] | 17000
O=C[C@H](C[C@@H]1CCNC1=O)NC(=O)[C@H](CC1CCCCC1)NC(=O)O[C@@H]1CCC[C@H]1Cc1cccc(Cl)c1 [Compound C262] | 20
O=C(N[C@@H](CC1CCCCC1)C(=O)N[C@@H](C[C@@H]1CCNC1=O)C(=O)C(=O)NC1CC1)O[C@H]1CCC[C@@H]1Cc1cccc(Cl)c1 [Compound C264] | 680

Reference: US20230159453A1 (COCRYSTAL PHARMA, INC., priority 2020, published 2023)
